Key:
PDE7B = biological target: T1, PDE7B (Homo sapiens, UniProt Q9NP56); assay: PDE enzyme  assay, PDE7B; format: biochemical
T1 construct: purchased Eurofins Panlabs Discovery Services Taiwan, Ltd. (contract assay); host or cells: insect Sf9 cells
Protocol: Enzyme assays for various subtypes of PDE (Table 1 and Figure 4) were conducted by Eurofins Panlabs Discovery Services Taiwan, Ltd. (New Taipei City, Taiwan). In the assays, five or six concentrations of nobiletin over five or six orders of magnitude were examined in experiments conducted in duplicate to determine the IC50 (concentration of nobiletin exerting half-maximal inhibition of control-specific activity). IC50 values were determined by nonlinear least squares regression analysis using MathIQTM (ID Business Solutions Ltd., Woking, UK). FAM-cAMP, FAM-cGMP (0.1 μM), and 100 μM [^3H]cGMP + cGMP were used for the substrate in the human recombinant insect Sf9 cells or Bovine retinal rod outer segments depending on the PDE subtype. The spectrofluorometric quantitation of fluorescein-AMP-IMAP, fluorescein-GMP-IMAP, or [^3H] guanosine was used depending on the PDE subtype. A known […] of each PDE was used as the positive control.

[1] = Blood glucose after i.p. injection; format: in vivo, mice; settings: 100 mg/kg, after 4 h fasting, 0-90 min
Protocol: Male C57BL/6J mice (7 weeks old) were purchased from Charles River Japan (Kanagawa, Japan) and used for the serum hormone assay and RT-PCR. Male ICR mice were purchased from Tokyo Laboratory Animals Science Co., Ltd. (Tokyo, Japan), and female PERIOD2::LUCIFERASE (PER2::LUC) knock-in mice (ICR background) bred at Waseda University were used for blood glucose measurements and in vivo imaging assays, respectively. The mice were all housed under conditions of controlled temperature (23 °C ± 3 °C), humidity (50% ± 20%), and lighting (lights on from 07:00 to 19:00 at Taisho Pharmaceutical Co., Ltd. or from 08:00 to 20:00 at Waseda University). In the 24 h cycle, Zeitgeber time 0 (ZT0) was designated as the time when the lights were turned on, and ZT12 was designated as the time when the lights were turned off. […]
Serum corticosterone, adrenaline, and adreno-corticotropic hormone (ACTH) levels, and corticotropin releasing factor (CRF) in the hypothalamus, were measured using enzyme-linked immunosorbent assay (ELISA). […] Blood glucose levels were measured using a Glucose PILOT kit (Aventir Biotech, LLC, Carlsbad, CA, USA). The range of blood glucose that could be precisely measured with the kit was 20–600 mg/dL. […]

CRF in the hypothalamus = CRF in the hypothalamus ELISA; format: in vivo, mice; settings: an hour after injection (50 or 100 mg/kg)
Protocol: (§1) Serum corticosterone, adrenaline, and adreno-corticotropic hormone (ACTH) levels, and corticotropin releasing factor (CRF) in the hypothalamus, were measured using enzyme-linked immunosorbent assay (ELISA). A corticosterone ELISA kit (Cayman Chemical Company, Ann Arbor, MI, USA), an adrenaline ELISA kit (Abcam, Cambridge, UK), an ACTH ELISA kit (Phoenix Pharmaceuticals Inc., Burlingame, CA, USA), and a CRF ELISA kit (Yanaihara Institute Inc., Shizuoka, Japan) were used. Assays were conducted according to the manufacturer’s instructions. Blood samples were collected from the mice at ZT4, 5, and 7 after the administration of nobiletin at ZT3 (10 mg/kg and 100 mg/kg, in Figure 3A,B). Blood glucose levels were measured using a Glucose PILOT kit (Aventir Biotech, LLC, Carlsbad, CA, USA). The range of blood glucose that could be precisely measured with the kit was 20–600 mg/dL. Before measurement, we administered nobiletin (100 mg/kg body weight) to the mice, after 4 h fasting. Blood was collected from the tail vein of each mouse for measurement. The measurements were conducted at 0, 15, 30, 45, 60, and 90 min after reagent administration in Figure 3C. Samples were collected one hour after nobiletin treatment (50 or 100 mg/kg; Figure 3D,E), or 2 or 4 h after treatment in Figure 3F. […]

serum ACTH = assay: Serum ACTH ELISA; format: in vivo, mice; settings: an hour after injection (50 or 100 mg/kg)
Protocol: as §1

Bmal1 mRNA = assay: Real-time RT-PCR of Bmal1 mRNA in peripheral tissues; format: in vivo, mice; settings: after a single treatment
Protocol: Male C57BL/6J mice (7 weeks old) were purchased from Charles River Japan (Kanagawa, Japan) and used for the serum hormone assay and RT-PCR. Male ICR mice were purchased from Tokyo Laboratory Animals Science Co., Ltd. (Tokyo, Japan), and female PERIOD2::LUCIFERASE (PER2::LUC) knock-in mice (ICR background) bred at Waseda University were used for blood glucose measurements and in vivo imaging assays, respectively. The mice were all housed under conditions of controlled temperature (23 °C ± 3 °C), humidity (50% ± 20%), and lighting (lights on from 07:00 to 19:00 at Taisho Pharmaceutical Co., Ltd. or from 08:00 to 20:00 at Waseda University). In the 24 h cycle, Zeitgeber time 0 (ZT0) was designated as the time when the lights were turned on, and ZT12 was designated as the time when the lights were turned off. All the mice were given access to food and tap water ad libitum, and nobiletin (10–100 mg/kg; purchased from FUJIFILM Wako Pure Chemical Corporation, Osaka, Japan) was administered by intraperitoneal (i.p.) injection in the vehicle (10 mL/kg body weight) containing 0.5% carboxymethyl cellulose (CMC). Rolipram (PDE4 inhibitor, FUJIFILM Wako Pure Chemical Corporation) and SR1078 (RORα/γ agonist, FUJIFILM Wako Pure Chemical Corporation) were also used for the experiment at 10 mg/kg in 0.5% CMC [12]. Mice were euthanized by rapid decapitation for whole blood samples.
Figure 3 Nobiletin stimulated adrenaline and corticosterone secretion, and induced acute clock gene expression changes. (A–C) Mice received intraperitoneal injections of control (0.5% CMC) or nobiletin (10 or 100 mg/kg) at ZT3. (A) Serum corticosterone at 1 h after treatment (n = 6 in each). $$$ p < 0.001 by Tukey’s multiple comparisons test. (B) Serum corticosterone and adrenaline at 1, 2, and 4 h after treatment (n = 4 in each). # p < 0.05 vs. control at each time point by Mann–Whitney test; ** p < 0.01 vs. control at each time point by Student’s t-test. (C) Blood glucose changes after treatment (n = 9 in each). Statistics of 2-way repeated ANOVA are indicated on the graph. […]

T1 sequence (Q9NP56 whole entry): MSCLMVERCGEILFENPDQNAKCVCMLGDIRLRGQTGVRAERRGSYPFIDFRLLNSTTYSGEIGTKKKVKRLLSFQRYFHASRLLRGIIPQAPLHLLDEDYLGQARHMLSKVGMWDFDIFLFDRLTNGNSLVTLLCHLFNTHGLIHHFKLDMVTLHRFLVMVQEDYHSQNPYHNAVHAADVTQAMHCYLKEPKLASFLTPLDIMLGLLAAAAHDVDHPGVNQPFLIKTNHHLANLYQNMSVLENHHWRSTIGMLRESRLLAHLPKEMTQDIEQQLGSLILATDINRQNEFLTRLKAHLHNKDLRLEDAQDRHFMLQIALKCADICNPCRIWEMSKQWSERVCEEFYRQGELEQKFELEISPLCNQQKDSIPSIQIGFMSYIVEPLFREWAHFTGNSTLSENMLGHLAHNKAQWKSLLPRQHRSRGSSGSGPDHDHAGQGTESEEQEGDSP

**Q.** Which IC50 (PDE7B) does the source give for COc1ccc(-c2cc(=O)c3c(OC)c(OC)c(OC)c(OC)c3o2)cc1OC [nobiletin] here?
**A.** 20.4 µM

**Q.** And the blood glucose levels [1]?
**A.** increased

**Q.** And the “CRF in the hypothalamus” value (CRF in the hypothalamus)?
**A.** did not change significantly

**Q.** What about the “serum ACTH” value (serum ACTH) of the same compound?
**A.** did not change significantly

**Q.** And the Bmal1 expression (Bmal1 mRNA)?
**A.** did not change significantly

From article PMC11123956, “Nobiletin Stimulates Adrenal Hormones and Modulates the Circadian Clock in Mice” (Nutrients, 2024)
